This is an account of results in PubChem BioAssay (NCI).

Where “and” joins values, the source holds several entries; their conditions need not be identical. Equal values may be shown once.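 Cells were grown in 96-well plates and exposed to each compound for 48 hours at five concentrations; endpoints were interpolated linearly between bracketing concentrations, or set to the highest concentration if not reached. Here, GI50 denotes the concentration required for 50% inhibition of growth. TGI is the concentration that stops growth completely.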

Some test systems named below: DLD-1 colon; DMS 114 small cell lung; DMS 273 small cell lung; HOP-18 NSCLC; LXFL 529 NSCLC; RXF-631 renal; SNB-78 CNS; XF 498 CNS; MDA-N.
Holding throughout (experiment): NCI-60 cell line screen, 48 h

As to `COC1/C(=C\C(=O)OC(C)(C)C)c2ccccc2N1C(C)=O` (configuration not stated), the TGI in the assay with DLD-1 colon, with DMS 114 small cell lung, with DMS 273 small cell lung, in the assay on HOP-18 NSCLC, in the assay with LXFL 529 NSCLC and in the assay with RXF-631 renal was above 100 µM throughout. Moreover, the TGI in the assay on SNB-78 CNS and with XF 498 CNS was above 100 µM throughout.

As for `O=C1C(=Cc2ccco2)C(=O)C2CCCCC12` (configuration not stated), the TGI in the assay with MDA-N was above 100 µM.

For the compound `Cc1cccc(C)c1NC(=O)/C(Cl)=C(/Cl)C(=O)O`, the TGI with DLD-1 colon came out at 17.8 µM; in the assay on DMS 114 small cell lung, 43.2 µM; in the assay on DMS 273 small cell lung, 35.9 µM; in the assay with HOP-18 NSCLC, 38.2 µM; with LXFL 529 NSCLC it was 15.2 µM; with MDA-N it was 36.8 µM. Moreover, the TGI with SNB-78 CNS is above 74.6 µM; with XF 498 CNS, 28.6 µM.

`Clc1ccc(-n2nnc(C3=NCCCN3)c2-c2ccccc2)cc1`: the TGI in the assay on DLD-1 colon, in the assay with DMS 114 small cell lung, in the assay with DMS 273 small cell lung, in the assay on HOP-18 NSCLC, with LXFL 529 NSCLC and in the assay on SNB-78 CNS was above 100 µM each time. The same compound had a TGI in the assay on XF 498 CNS above 100 µM.

With `CC(C)=CC(=O)Oc1ccc([N+](=O)[O-])cc1`, the TGI in the assay on DLD-1 colon, in the assay on DMS 114 small cell lung, in the assay with DMS 273 small cell lung, with HOP-18 NSCLC, in the assay on LXFL 529 NSCLC and in the assay on SNB-78 CNS was above 100 µM in each case. In the assay on XF 498 CNS, the TGI was above 100 µM.

As for `CC(=O)OCC1OC(OC2CC3C(C)(C)C(OC(C)=O)CC[C@]3(C)C3CCC45CC4(CC[C@H]5C(C)CC(O)[C@@H](O)C(C)(C)O)[C@]23C)C(O)C(O)C1O` (some centres not stated), the GI50 in the assay with DLD-1 colon is 10.4 µM; in the assay on HOP-18 NSCLC, 5.43 µM; in the assay with LXFL 529 NSCLC, 4.65 µM. The TGI in the assay with DLD-1 colon is 13.7 µM and 23.2 µM; with DMS 273 small cell lung, 13.8 µM and 20.3 µM; in the assay with HOP-18 NSCLC it was 15 µM and 17.3 µM; in the assay with LXFL 529 NSCLC it was 11.3 µM and 16.2 µM; in the assay with XF 498 CNS, 33.9 µM.

Take `Cc1cc(O)c(C(=O)CC2(O)C(=O)Nc3c(Cl)cc(Cl)cc32)c(=O)o1` (configuration not stated): the TGI in the assay with DLD-1 colon, in the assay on DMS 273 small cell lung, in the assay with HOP-18 NSCLC, in the assay on LXFL 529 NSCLC, in the assay with RXF-631 renal and with SNB-78 CNS was above 100 µM each time. Further, the TGI in the assay on XF 498 CNS was above 100 µM.

With `Cn1nc(-c2ccccc2)c(N=[N+]=[N-])cc1=O`, the TGI in the assay on DMS 114 small cell lung, with DMS 273 small cell lung, with LXFL 529 NSCLC and with XF 498 CNS was above 100 µM each time.

In the assay on MDA-N, `[N-]=[N+]=C(C(=O)OCC#CCOC(=O)C(=[N+]=[N-])S(=O)(=O)c1ccccc1)S(=O)(=O)c1ccccc1` had a TGI above 10 µM.

`O=C(O)c1c2c(c(C(=O)O)c3ccccc13)-c1ccccc1-2`: the TGI in the assay on DLD-1 colon is above 100 µM; in the assay on DMS 114 small cell lung, above 100 µM; with DMS 273 small cell lung, above 100 µM; with HOP-18 NSCLC, 83.9 µM; with LXFL 529 NSCLC, above 100 µM; with SNB-78 CNS, above 100 µM. The TGI in the assay on XF 498 CNS was above 100 µM.

As to `N/N=C(\CC1OC(=O)c2ccccc21)c1ccco1` (configuration not stated), the TGI in the assay on DLD-1 colon is above 100 µM; in the assay with DMS 114 small cell lung, above 100 µM; in the assay on DMS 273 small cell lung it was above 100 µM; with HOP-18 NSCLC, 0.343 µM; in the assay on LXFL 529 NSCLC, above 100 µM.

With `Cc1ncc([N+](=O)[O-])n1CCNS(=O)(=O)CCCn1ccnc1[N+](=O)[O-]`, the TGI in the assay on MDA-N was above 100 µM.

As for `COc1ccc(C(=O)C(c2ccc(OC)cc2)C2(O)C(=O)Nc3c(C)cc(Cl)cc32)cc1` (configuration not stated), the TGI in the assay with DLD-1 colon, with DMS 273 small cell lung, with LXFL 529 NSCLC, in the assay on RXF-631 renal and with SNB-78 CNS was above 100 µM throughout.

For `COc1ccc(/C=C\c2cc(OC)c(OC)c(OC)c2)cc1OC(=O)C(N)CCC(=O)O` (configuration not stated), the TGI in the assay on DLD-1 colon was above 100 µM; in the assay with SNB-78 CNS, 46.4 µM; with XF 498 CNS, 0.0491 µM. Moreover, in the assay on MDA-N, the GI50 was 0.000204 µM.

`COc1ccc(C2S/C(=C\c3cc(OC)c(OC)c(OC)c3)C(=O)N2NC(=O)Cc2ccccc2)cc1` (configuration not stated): the TGI in the assay with DLD-1 colon, in the assay with DMS 114 small cell lung, in the assay with DMS 273 small cell lung, in the assay on HOP-18 NSCLC and with LXFL 529 NSCLC was above 100 µM each time.

Take `Cc1cccc(C)c1NC(=O)CCCC(=O)CC(=O)/C=C/c1ccccc1`: the TGI in the assay with DLD-1 colon, in the assay with DMS 114 small cell lung, in the assay on DMS 273 small cell lung, in the assay on HOP-18 NSCLC, with LXFL 529 NSCLC and in the assay with RXF-631 renal was above 100 µM throughout. For the same compound, the TGI in the assay with SNB-78 CNS and with XF 498 CNS was above 100 µM in each case.

For `Cc1nc2c(=O)[nH]c(=O)n(C)c2[nH]c1=O`, the TGI with DLD-1 colon, with DMS 273 small cell lung and with LXFL 529 NSCLC was above 100 µM each time.

With `CN(C)CCCN=C(N)N`, in the assay with MDA-N, the TGI is above 100 µM.

As for `c1nc2cscc2c2cscc12`, the TGI in the assay with DMS 114 small cell lung, in the assay on DMS 273 small cell lung, with LXFL 529 NSCLC, in the assay with SNB-78 CNS and with XF 498 CNS was above 100 µM throughout.

Regarding `CC1(C)COCN1COC1CCCCC1`, the TGI with MDA-N is above 100 µM.

Compound `N#Cc1ccccc1NC(=O)/C(=N\NC(=O)c1ccncc1)C(c1cnc2ccc([N+](=O)[O-])cc2n1)[N+](=O)[O-]` (configuration not stated) had a TGI in the assay on MDA-N above 100 µM.
